# Data from patent publication US6737383B1, “Herbicidal oxadiazolidines” (priority 1999, dated 2004).
# Tests used:
# bedstraw = experiment: Test B pre/postemergence bedstraw; assay type: in vivo, Galium aparine
# Procedure, shortened: (§1)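 Herbicidal effect was estimated by eye on a ten-point control scale after plants spent twelve to sixteen days in a greenhouse following soil or foliar treatment. Foliar sprays targeted plants at one to four leaves; all doses were formulated in a non-phytotoxic solvent with surfactant.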
# blackgrass = experiment: Test B pre/postemergence blackgrass; assay type: in vivo, Alopecurus myosuroides
# Procedure, shortened: as §1
# surinam grass = experiment: Test B pre/postemergence surinam grass; assay type: in vivo, Brachiaria decumbens
# Procedure, shortened: as §1
# cocklebur = experiment: Test B pre/postemergence cocklebur; assay type: in vivo, Xanthium strumarium
# Procedure, shortened: as §1
# corn = experiment: Test B pre/postemergence corn; assay type: in vivo, Zea mays
# Procedure, shortened: as §1
# crabgrass = experiment: Test B pre/postemergence crabgrass; assay type: in vivo, Digitaria sanguinalis
# Procedure, shortened: as §1
# giant foxtail = experiment: Test B pre/postemergence giant foxtail; assay type: in vivo, Setaria faberii
# Procedure, shortened: as §1
# pigweed = experiment: Test B pre/postemergence pigweed; assay type: in vivo, Amaranthus retroflexus
# Procedure, shortened: as §1
# soybean = experiment: Test B pre/postemergence soybean; assay type: in vivo, Glycine max
# Procedure, shortened: as §1
# sugar beet = experiment: Test B pre/postemergence sugar beet; assay type: in vivo, Beta vulgaris
# Procedure, shortened: as §1
# velvetleaf = experiment: Test B pre/postemergence velvetleaf; assay type: in vivo, Abutilon theophrasti
# Procedure, shortened: as §1
# wild oat = experiment: Test B pre/postemergence wild oat; assay type: in vivo, Avena fatua
# Procedure, shortened: as §1
# purple nutsedge = experiment: Test B pre/postemergence purple nutsedge; assay type: in vivo, Cyperus rotundus
# Procedure, shortened: as §1
# rice = experiment: Test B flood test rice; assay type: in vivo, Oryza sativa
# Procedure, shortened: (§2)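 Flood test on plants grown to the 2-leaf stage; treated plants kept in greenhouse twelve to sixteen days, then visually rated against controls on a 0 (no effect) to 10 (complete control) scale.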
# smallflower flatsedge = experiment: Test B flood test smallflower flatsedge; assay type: in vivo, Cyperus difformis
# Procedure, shortened: as §2
# bamyardgrass = experiment: Test B flood test barnyardgrass; assay type: in vivo, Echinochloa crus-galli
# Procedure, shortened: as §2
# [1] = Postemergence, Rate 62 g/ha, scale 0 to 10, 0 is no effect, 10 is complete control
# [2] = Postemergence, Rate 250 g/ha, scale 0 to 10, 0 no effect, 10 complete control
# [3] = Preemergence, Rate 62 g/ha, scale 0 to 10 (0 no effect, 10 complete control)
# [4] = Preemergence, Rate 125 g/ha, scale 0 to 10 (0 no effect, 10 complete control)
# [5] = Preemergence, Rate 250 g/ha, scale of 0 to 10 where 0 is no effect and 10 is complete control
# [6] = Preemergence, Rate 500 g/ha, scale 0 (no effect) to 10 (complete control)
# [7] = Rate 125 g/ha, Postemergence, scale 0 to 10, 0 no effect, 10 complete control
# [8] = Rate 500 g/ha, Postemergence, scale 0 to 10, 0 no effect, 10 complete control
# [9] = Rate 125 g/ha, Postemergence section (flood test species), scale 0 to 10, 0 no effect, 10 complete control
# [10] = Rate 500 g/ha, listed under Postemergence (flood test species), scale 0 to 10, 0 no effect, 10 complete control
# [11] = flood test, listed under Postemergence, Rate 250 g/ha, scale 0 to 10, 0 no effect, 10 complete control
smiles,measurement,setting,value
Cc1ccccc1-n1c(=O)on(C(=O)N(c2cc(F)cc(F)c2)C(C)C)c1=O [Compound 67],Bedstraw plant response rating,bedstraw; [1],0
same,Bedstraw plant response rating,bedstraw; [2],7
same,Bedstraw plant response rating,bedstraw; [3],0
same,"Plant response rating, Bedstraw",bedstraw; [4],0
same,"Plant response rating, Bedstraw",bedstraw; [5],0
same,Bedstraw plant response rating,bedstraw; [6],0
same,Bedstraw plant response rating,bedstraw; [7],5
same,Bedstraw plant response rating,bedstraw; [8],8
same,Blackgrass plant response rating,blackgrass; [1],0
same,Blackgrass plant response rating,blackgrass; [2],0
same,Blackgrass plant response rating,blackgrass; [3],0
same,"Plant response rating, Blackgrass",blackgrass; [4],0
same,"Plant response rating, Blackgrass",blackgrass; [5],2
same,Blackgrass plant response rating,blackgrass; [6],2
same,Blackgrass plant response rating,blackgrass; [7],0
same,Blackgrass plant response rating,blackgrass; [8],0
same,B. signalgrass plant response rating,surinam grass; [1],0
same,B. signalgrass plant response rating,surinam grass; [2],0
same,B. signalgrass plant response rating,surinam grass; [3],0
same,"Plant response rating, B. signalgrass",surinam grass; [4],0
same,"Plant response rating, B. signalgrass",surinam grass; [5],0
same,B. signalgrass plant response rating,surinam grass; [6],2
same,B. signalgrass plant response rating,surinam grass; [7],0
same,B. signalgrass plant response rating,"surinam grass; Rate 500 g/ha, Postemergence, scale of 0 to 10 where 0 is no effect and 10 is complete control",0
same,Cocklebur plant response rating,cocklebur; [1],0
same,Cocklebur plant response rating,cocklebur; [2],1
same,Cocklebur plant response rating,cocklebur; [3],0
same,"Plant response rating, Cocklebur",cocklebur; [4],0
same,"Plant response rating, Cocklebur",cocklebur; [5],0
same,Cocklebur plant response rating,cocklebur; [6],0
same,Cocklebur plant response rating,cocklebur; [7],0
same,Cocklebur plant response rating,cocklebur; [8],1
same,Corn plant response rating,corn; [1],0
same,Corn plant response rating,corn; [2],0
same,Corn plant response rating,corn; [3],0
same,"Plant response rating, Corn",corn; [4],0
same,"Plant response rating, Corn",corn; [5],0
same,Corn plant response rating,corn; [6],0
same,Corn plant response rating,corn; [7],0
same,Corn plant response rating,corn; [8],0
same,Crabgrass plant response rating,crabgrass; [1],0
same,Crabgrass plant response rating,crabgrass; [2],0
same,Crabgrass plant response rating,crabgrass; [3],2
same,"Plant response rating, Crabgrass",crabgrass; [4],4
same,"Plant response rating, Crabgrass",crabgrass; [5],4
same,Crabgrass plant response rating,crabgrass; [6],7
same,Crabgrass plant response rating,crabgrass; [7],0
same,Crabgrass plant response rating,crabgrass; [8],0
same,Giant foxtail plant response rating,giant foxtail; [1],0
same,Giant foxtail plant response rating,giant foxtail; [2],0
same,Giant foxtail plant response rating,giant foxtail; [3],3
same,"Plant response rating, Giant foxtail",giant foxtail; [4],7
same,"Plant response rating, Giant foxtail",giant foxtail; [5],8
same,Giant foxtail plant response rating,giant foxtail; [6],8
same,Giant foxtail plant response rating,giant foxtail; [7],0
same,Giant foxtail plant response rating,giant foxtail; [8],0
same,Redroot pigweed plant response rating,pigweed; [1],0
same,Redroot pigweed plant response rating,pigweed; [2],0
same,Redroot pigweed plant response rating,pigweed; [3],4
same,"Plant response rating, Redroot pigweed",pigweed; [4],4
same,"Plant response rating, Redroot pigweed",pigweed; [5],9
same,Redroot pigweed plant response rating,pigweed; [6],10
same,Redroot pigweed plant response rating,pigweed; [7],0
same,Redroot pigweed plant response rating,pigweed; [8],4
same,Soybean plant response rating,soybean; [1],0
same,Soybean plant response rating,soybean; [2],1
same,Soybean plant response rating,soybean; [3],0
same,"Plant response rating, Soybean",soybean; [4],0
same,"Plant response rating, Soybean",soybean; [5],0
same,Soybean plant response rating,soybean; [6],0
same,Soybean plant response rating,soybean; [7],1
same,Soybean plant response rating,soybean; [8],1
same,Sugarbeets plant response rating,sugar beet; [1],0
same,Sugarbeets plant response rating,sugar beet; [2],0
same,Sugarbeets plant response rating,sugar beet; [3],0
same,"Plant response rating, Sugarbeets",sugar beet; [4],0
same,"Plant response rating, Sugarbeets",sugar beet; [5],0
same,Sugarbeets plant response rating,sugar beet; [6],3
same,Sugarbeets plant response rating,sugar beet; [7],0
same,Sugarbeets plant response rating,sugar beet; [8],2
same,Velvetleaf plant response rating,velvetleaf; [1],0
same,Velvetleaf plant response rating,velvetleaf; [2],0
same,Velvetleaf plant response rating,velvetleaf; [3],0
same,"Plant response rating, Velvetleaf",velvetleaf; [4],0
same,"Plant response rating, Velvetleaf",velvetleaf; [5],0
same,Velvetleaf plant response rating,velvetleaf; [6],0
same,Velvetleaf plant response rating,velvetleaf; [7],0
same,Velvetleaf plant response rating,velvetleaf; [8],0
same,Wild oats plant response rating,wild oat; [1],0
same,Wild oats plant response rating,wild oat; [2],0
same,Wild oats plant response rating,wild oat; [3],0
same,"Plant response rating, Wild oats",wild oat; [4],0
same,"Plant response rating, Wild oats",wild oat; [5],0
same,Wild oats plant response rating,wild oat; [6],2
same,Wild oats plant response rating,wild oat; [7],0
same,Wild oats plant response rating,wild oat; [8],0
same,Nutsedge plant response rating,purple nutsedge; [1],0
same,Nutsedge plant response rating,purple nutsedge; [2],0
same,Nutsedge plant response rating,purple nutsedge; [3],0
same,"Plant response rating, Nutsedge",purple nutsedge; [4],0
same,"Plant response rating, Nutsedge",purple nutsedge; [5],0
same,Nutsedge plant response rating,purple nutsedge; [6],0
same,Nutsedge plant response rating,purple nutsedge; [7],0
same,Nutsedge plant response rating,purple nutsedge; [8],0
same,Rice plant response rating,rice; [1],0
same,Rice plant response rating,rice; [9],0
same,Rice plant response rating,rice; [10],0
same,Rice plant response rating,rice; [11],0
same,S. Flatsedge plant response rating,smallflower flatsedge; [1],0
same,S. Flatsedge plant response rating,smallflower flatsedge; [9],0
same,S. Flatsedge plant response rating,smallflower flatsedge; [10],0
same,S. Flatsedge plant response rating,smallflower flatsedge; [11],0
same,Barnyardgrass plant response rating,bamyardgrass; [1],0
same,Barnyardgrass plant response rating,bamyardgrass; [9],0
same,Barnyardgrass plant response rating,bamyardgrass; [10],0
same,Barnyardgrass plant response rating,bamyardgrass; [11],0
